# Where “and” joins values, the source holds several entries; their conditions need not be identical. Equal entries are not always repeated.
# Key:
# [1] = system: MCF-7 cells; assay: Apoptosis by DNA content analysis and flow cytometry in MCF-7 cells; format: cell-based, human
# Experimental: Cervical carcinoma HeLa (functionally inactivated p53) cells or breast carcinoma MCF-7 (wild type p53) cells were plated at 50-60% confluency in C-6 wells. […]
# (§1) After 4, 8, 16, and 32 hours of incubation, without removing taxol from the wells, purvalanol A was added at three increasing concentrations, 1, 10 and 20 uM (FIG. 1). A control was performed with addition of purvalanol A at the 0-h time point.
# (§2) The cell populations were harvested at increasing time intervals from the 0-h time point or corresponding to the addition of purvalanol A. Apoptosis was analyzed by DNA content analysis and flow cytometry (DAPI staining).
# [2] = system: p34^cdc2 kinase activity (MPM-2 epitope) in MCF-7 cells; assay: MPM-2 mitotic phosphoepitope expression (p34^cdc2 kinase activity) in MCF-7 cells; format: cell-based, human; conditions: adriamycin-induced G2/M arrest
# Experimental: MPM-2 Mitotic Phosphoepitope Expression: For detection of mitotic phosphoproteins (D. D. Vandre et al. (1989) J. Cell Sci. 94: 245-58), MCF-7 cells (1-2×10^5 cells/60 mm dish) were treated with taxol (2 μM), adriamycin (100 nM), 50 or 300 J/m^2 UVB irradiation and cultured for 0, 8, 16, 24 or 36 h at 37° C. Cells were fixed in 70% ethanol, labeled with MPM-2 antibody (6 μg/ml) followed by addition of goat anti-mouse FITC (Boehringer Mannheim) for 1 h at 22° C. in the presence of 5 μg/ml propidium iodide (PI) containing 50 μg/ml RNase A. Samples were analyzed on a FACScan (Becton Dickinson, Mountain View, Calif.), using CellQuest software.
# MPM-2 Mitotic Phosphoepitope Expression: For detection of mitotic phosphoproteins (D. D. Vandre et al. (1989) J. Cell Sci. 94: 245-258), MCF-7 cells (1-2×10^5 cells/60 mm dish) were treated with taxol (0.2 μM), or vincristine (100 nM) for increasing time intervals (8-36 h) at 37° C. Cells were fixed in 70% ethanol, labeled with MPM-2 antibody (6 μg/ml; Upstate Biotechnology, Lake Placid, N.Y.) followed by addition of goat anti-mouse FITC (Boehringer Mannheim) for 1 h at 22° C. in the presence of 5 μg/ml propidium iodide containing 50 μg/ml RNAse A. Samples were analyzed on a FACScan (Becton Dickinson, Mountain View, Calif.), using CellQuest software. Data are expressed as %MPM-2 positive cells in the entire population.
# [3] = system: survivin expression in MCF-7 cells; assay: Survivin expression by Western blotting in MCF-7 cells; format: cell-based, human; conditions: 100 nM adriamycin
# Experimental: (§3) Cell Cultures, Proteins and Antibodies: Breast carcinoma MCF-7 and cervical carcinoma HeLa cells (American Type Culture Collection, Manassas, Va.) were maintained in culture according to the manufacturer's specifications. For treatment with genotoxic agents, HeLa or MCF-7 cells were incubated with vehicle (DMSO) or taxol (2 μM, Sigma Chemical Co., St. Louis, Mo.), adriamycin (100 nM, Sigma), cis-platin (3 μM, Sigma) or subjected to ultraviolet B (UVB) irradiation at 50 or 300 J/m^2. In some experiments, HeLa or MCF-7 treated with taxol, adriamycin or UVB as described above were incubated with inhibitors of transcription (actinomycin D, 1 μg/ml) or translation (cycloheximide, 2 mg/ml) before determination of protein expression by Western blotting. […] A replication-deficient adenovirus encoding wild type survivin (pAd-Survivin) or control encoding Green Fluorescence Protein (pAd-GFP) was generated using the pAd-Easy system as described previously (M. Mesri et al. (2001) J. Clin. Invest. 108: 981-90), and propagated in HEK293 cells with purification by CsCl banding. […] Antibodies to p34^cdc2 or bcl-2 were obtained from Pharmingen (San Diego, Calif.) and R&D, respectively. An antibody to β-actin was from Sigma and antibodies to MPM-2 mitotic phosphoproteins was from Upstate Biotechnology (Lake Placid, N.Y.).
# (§4) In some experiments, total RNA was extracted from MCF-7 cells at various time intervals after adriamycin treatment, and hybridized with 32 P-labeled survivin cDNA as described previously. Radioactive bands were detected by autoradiography. […] In other experiments, samples were transferred to nylon membranes and analyzed by Western blotting with antibodies to p34^cdc2 (1 μg/ml), survivin (2 μg/ml), or survivinT34* (5 μg/ml).
# [4] = system: survivin mRNA in MCF-7 cells; assay: Northern hybridization of survivin mRNA in MCF-7 cells; format: cell-based, human; conditions: adriamycin-treated MCF-7 cells
# Experimental: as §4
# [5] = system: MCF-7 xenografts; format: in vivo; conditions: adriamycin 2 mg/kg or flavopiridol 15 mg/kg alone, i.p.
# From the text: Each complete cycle was separated by 2 d without treatment.
# This test generates a P value testing the null hypothesis that the survival curves are identical in the overall populations.
# [6] = system: HeLa cells; assay: Apoptosis by DNA content analysis and flow cytometry in HeLa cells; format: cell-based, human
# [7] = system: HeLa cells; assay: as above; format: cell-based, human; remark: listed apart in the source
# Experimental: Cervical carcinoma HeLa (functionally inactivated p53) cells or breast carcinoma MCF-7 (wild type p53) cells were plated at 50-60% confluency in C-6 wells. Cells were treated with taxol at 0.2 μM for 0 to 32 hours in complete media.
# as §1, §2
# [8] = system: p34^cdc2 kinase activity (MPM-2 epitope) in HeLa cells; assay: MPM-2 mitotic phosphoepitope expression (p34^cdc2 kinase activity) in HeLa cells; format: cell-based, human
# [9] = system: survivin expression in HeLa cells; assay: Survivin expression by Western blotting in HeLa cells; format: cell-based, human
# Experimental: as §3, §4
# In other experiments, HeLa cells were treated with taxol (0.2 μM) for 16 h followed by the DNA damaging agent adriamycin (100 nM, Sigma) or the nucleoside analog 5-Fluorouracil (500 μM, Sigma) for 8-32 h at 37° C. […] In some experiments, HeLa cells were transfected by lipofectamine with a minimal survivin promoter construct upstream of a luciferase reporter gene (pLuc-cyc1.2), as described (F. Li et al. (1998) Nature 396: 580-584). Cells were treated with taxol (2 μM) or UVB (50 J/m2), and analyzed for changes in luciferase activity at increasing time intervals (12-36 h) in a luminometer. Luciferase values were normalized to β-galactosidase expression. […] The immune complexes were separated by SDS gel electrophoresis and analyzed with antibodies to survivin or a-survivinT34* by Western blotting.
# [10] = system: survivin expression in PC3 cells; assay: Survivin expression by Western blotting in PC3 cells; format: cell-based; conditions: taxol then Purvalanol A
# [11] = system: survivin phosphorylation on Thr^34 in HeLa cells; assay: Survivin phosphorylation on Thr^34 in HeLa cells (immunoprecipitation, Western blotting); format: cell-based, human; conditions: taxol 0.2 μM 16 h then Purvalanol A 20 μM 16 h
# Experimental: A. In vitro kinase assay. […] Radioactive bands were detected by autoradiography. […] The immune complexesb were analyzed by Western blotting (WB) with an antibody to Thr^34-phosphorylated survivin (a-survivinT34*, top panel) or with an antibody to survivin (a-survivin, lower panel) followed by chemiluminescence. For all panels, relative molecular weight markers in kDa are shown on the left.
# as §4
# Luciferase values were normalized to β-galactosidase expression.
# [12] = system: MCF-7 tumors; assay: Breast cancer xenograft model (Example 8); format: in vivo, CB17 SCID/beige mice; conditions: taxol alone 2.5 or 5 mg/kg, Purvalanol A alone 20 mg/kg, i.p.
# Experimental: Breast Cancer Xenograft Model: All experiments involving animals were approved by the institutional animal cure and use committee. Six- to eight-week old female CB17 SCID/beige mice (Taconic Farms, Germantown, N.Y.) were injected s.c. into the flanks with 2.5×10^6 exponentially growing MCF-7 cells in 250 μl of sterile PBS, pH 7.4. […] Animals were injected i.p. with taxol alone (2.5 or 5 mg/kg), Purvalanol A alone (20 mg/kg) or the sequential combination of taxol-Purvalanol A for two consecutive days each divided by a day with no treatment. For single agent treatment, vehicle was given in place of taxol or Purvalanol A with the same schedule. Each complete cycle was separated by 2 d without treatment. Tumor volume was measured in the three dimensions with a caliper. Animals with tumor burden >3000 mm^3 were sacrificed (Survival).
# Statistical Analysis: All in vitro experiments were repeated at least three times. […] The survival curves were compared using the log-rank test. This test generates a P value testing the null hypothesis that the survival curves are identical in the overall populations.
# [13] = system: caspase-9; assay: Caspase-9 processing by Western blotting in HeLa cells; conditions: taxol 0.2 μM, Purvalanol A 20 μM or sequential combination, 16 h
# [14] = taxol 2 μM, adriamycin 100 nM, cis-platin 3 μM (Example 7)
smiles,measurement,setting,value
"COc1cccc2c1C(=O)c1c(O)c3c(c(O)c1C2=O)C[C@@](O)(C(=O)CO)C[C@@H]3O[C@H]1C[C@H](N)[C@H](O)[C@H](C)O1 [adriamycin, doxorubicin]",apoptosis,"[1]; adriamycin 100 nM alone, three values given, their conditions not stated",2% and 3% and 10%
same,apoptosis,[1]; [14],negligible apoptosis
same,cell cycle arrest,[1]; [14],G2/M arrest
same,enhancement of taxol-induced cell death,[1]; taxol then adriamycin 100 nM and 200 nM in place of purvalanol A,did not enhance taxol-induced cell death
same,residual cell population exhibiting MPM-2 expression,[2],20-25%
same,survivin expression,[3],increased survivin expression
same,survivin mRNA,[4],no detectable increase in survivin mRNA
same,kinetics of tumor growth vs vehicle,[5],did not affect the kinetics of tumor growth
same,enhancement of apoptosis vs single agent treatment,[6]; taxol 0.2 μM 16 h then adriamycin 100 nM or 5-Fluorouracil 500 μM,did not result in enhanced apoptosis
CC(C)[C@H](CO)Nc1nc(Nc2cccc(Cl)c2)c2ncn(C(C)C)c2n1 [Purvalanol A],cell population with hypodiploid (apoptotic) DNA content / cell death,"[7]; HeLa, 16 h, taxol 0.2 μM, Purvalanol A 20 μM, alone or sequential",6%
same,cell cycle arrest,"[7]; HeLa, taxol 0.2 μM or purvalanol A 1-20 uM alone (Examples 1, 2)",strong M arrest
same,apoptosis,"[7]; HeLa, taxol 0.2 μM then 20 uM purvalanol A, 8 h after purvalanol A addition",40%
same,"effect of purvalanol A on taxol-treated cells, concentration dependence","[7]; purvalanol A 1, 10 and 20 uM added after taxol 0.2 μM",dose dependent
same,efficacy of taxol followed by purvalanol A compared with HeLa cells,[1]; taxol 0.2 μM then purvalanol A,nearly identical
same,synergy with vincristine treatment,[1]; vincristine 10 nM and 100 nM then purvalanol A 10 uM,did not synergize with vincristine treatment
same,inhibition of kinase activity (MPM-2 epitope),"[8]; 16 h after addition of purvalanol A in taxol-treated cells, cell line not stated",70-80%
same,MPM-2 mitotic phosphoepitope expression,"[8]; HeLa, taxol 0.2 μM 16 h then Cdk inhibitor for 16 h (Purvalanol A 10 μM, alsterpaullone 20 μM, flavopiridol 250 nM, olomoucine 400 μM)",completely suppressed MPM-2 mitotic phosphoepitope expression
same,MPM-2 mitotic phosphoepitope expression,"[8]; HeLa, taxol 0.2 μM 16 h then Cdk inhibitor for 32 h",completely suppressed MPM-2 mitotic phosphoepitope expression
same,p34^cdc2 kinase activity,"[8]; HeLa, vincristine 100 nM then Purvalanol A 20 μM, earliest time point tested of 8 h",suppressed p34^cdc2 kinase activity
same,survivin levels,[9]; Purvalanol A alone or Purvalanol A followed by taxol,did not affect survivin levels
same,survivin expression,[9]; taxol 0.2 μM 16 h then Purvalanol A 20 μM 16 h,inhibition of increased survivin expression after taxol treatment
same,survivin expression,[9]; vincristine then Purvalanol A,reversed the increase in survivin expression
same,effect on taxol-induced increase of survivin expression,[10],reversed
same,phosphorylation of endogenous survivin on Thr^34,[11],suppressed phosphorylation of endogenous survivin on Thr^34
same,kinetics of tumor growth,[12],did not affect the kinetics of tumor growth
same,vincristine-induced apoptosis in the presence or the absence of Purvalanol A,[6]; after 96 h,indistinguishable
same,"apoptosis, purvalanol A alone or reversed schedule","[6]; purvalanol A 1, 10, 20 uM alone or followed by 0.2 uM taxol",no apoptosis at all
same,apoptosis,"[6]; taxol 0.2 μM then 20 uM purvalanol A, 16 h after purvalanol A addition",~90%
same,effect of sequential addition to taxol-treated cells,[6]; taxol 0.2 μM then Purvalanol A,"escape from the mitotic block, and massive apoptosis"
same,apoptosis,"[6]; vincristine then Purvalanol A, throughout a 32-h culture",did not result in induction of apoptosis
same,caspase-9 processing,[13],did not result in significant caspase-9 cleavage

# From US6949558B2, “Enhancement of taxane-based chemotherapy by a CDK1 antagonist” (Yale University, priority 2001, dated 2005)
